Test results published in the supplement of paper PMC10307832.

Key:
Test in all cases: relative viability (nuclei count vs DMSO), 5 days (fraction); higher = more cells survive
KN-93 + Trametinib = compound: CN(C/C=C/C1=CC=C(C=C1)Cl)CC2=CC=CC=C2N(CCO)S(=O)(=O)C3=CC=C(C=C3)OC [KN-93] + CC(=O)Nc1cccc(-n2c(=O)n(C3CC3)c(=O)c3c(Nc4ccc(I)cc4F)n(C)c(=O)c(C)c32)c1 [Trametinib] (partner 0.02 µM)
Outline: (§1)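 For relative viability, nuclei counts in treated wells were divided by those in vehicle wells. Lung cancer cell lines had been pin-tool dosed in 1536-well plates the day after seeding and cultured for 5 days, then fixed and stained in one step (final 0.05% Triton X-100, 1% formaldehyde, 1 ug/ml Hoechst) and imaged at 4×. Doses were one drug alone or a fixed anchor-drug dose plus five library-drug doses (not always all listed) in √10 steps, and values are duplicate-plate medians.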

KN-93 + Pictilisib = compound: CN(C/C=C/C1=CC=C(C=C1)Cl)CC2=CC=CC=C2N(CCO)S(=O)(=O)C3=CC=C(C=C3)OC [KN-93] + CS(=O)(=O)N1CCN(Cc2cc3nc(-c4cccc5[nH]ncc45)nc(N4CCOCC4)c3s2)CC1 [Pictilisib] (partner 1 µM)
Outline: as §1

KN-93 + Crizotinib = compound: CN(C/C=C/C1=CC=C(C=C1)Cl)CC2=CC=CC=C2N(CCO)S(=O)(=O)C3=CC=C(C=C3)OC [KN-93] + C[C@@H](Oc1cc(-c2cnn(C3CCNCC3)c2)cnc1N)c1c(Cl)ccc(F)c1Cl [Crizotinib] (partner 1 µM)
Outline: as §1

KN-93 + AZD7762 = compound: CN(C/C=C/C1=CC=C(C=C1)Cl)CC2=CC=CC=C2N(CCO)S(=O)(=O)C3=CC=C(C=C3)OC [KN-93] + NC(=O)Nc1cc(-c2cccc(F)c2)sc1C(=O)N[C@H]1CCCNC1 [AZD7762] (partner 0.2 µM)
Outline: as §1

KN-93 + Olaparib = compound: CN(C/C=C/C1=CC=C(C=C1)Cl)CC2=CC=CC=C2N(CCO)S(=O)(=O)C3=CC=C(C=C3)OC [KN-93] + O=C(c1cc(Cc2n[nH]c(=O)c3ccccc23)ccc1F)N1CCN(C(=O)C2CC2)CC1 [Olaparib] (partner 8 µM)
Outline: as §1

| Cell Line | relative viability (KN-93 + Trametinib; first compound 0.08 µM) | relative viability (KN-93 + Trametinib; first compound 0.253 µM) | relative viability (KN-93 + Trametinib; first compound 2.53 µM) | relative viability (KN-93 + Trametinib; first compound 8 µM) | relative viability (KN-93 + Pictilisib; first compound 0.08 µM) | relative viability (KN-93 + Pictilisib; first compound 0.253 µM) | relative viability (KN-93 + Pictilisib; first compound 2.53 µM) | relative viability (KN-93 + Pictilisib; first compound 8 µM) | relative viability (KN-93 + Crizotinib; first compound 0.08 µM) | relative viability (KN-93 + Crizotinib; first compound 0.253 µM) | relative viability (KN-93 + Crizotinib; first compound 2.53 µM) | relative viability (KN-93 + Crizotinib; first compound 8 µM) | relative viability (KN-93 + AZD7762; first compound 0.08 µM) | relative viability (KN-93 + AZD7762; first compound 0.253 µM) | relative viability (KN-93 + AZD7762; first compound 2.53 µM) | relative viability (KN-93 + AZD7762; first compound 8 µM) | relative viability (KN-93 + Olaparib; first compound 0.08 µM) | relative viability (KN-93 + Olaparib; first compound 0.253 µM) | relative viability (KN-93 + Olaparib; first compound 2.53 µM) | relative viability (KN-93 + Olaparib; first compound 8 µM) |
| --- | --- | --- | --- | --- | --- | --- | --- | --- | --- | --- | --- | --- | --- | --- | --- | --- | --- | --- | --- | --- |
| NCI-H3122 | 0.2 | 0.21 | 0.264 | 0.194 | 0.622 | 0.708 | 0.639 | 0.627 | 0.287 | 0.31 | 0.299 | 0.264 | 0.892 | 1.11 | 1.12 | 0.934 | 0.491 | 0.571 | 0.763 | 0.53 |
| NCI-H2170 | 0.796 | 1.16 | 1.02 | 0.834 | 0.303 | 0.266 | 0.319 | 0.255 | 1.13 | 1.66 | 1.42 | 0.931 | 0.623 | 0.971 | 0.845 | 0.734 | 0.531 | 0.679 | 0.679 | 0.419 |
| NCI-H1755 | 0.717 | 0.827 | 0.76 | 0.699 | 0.413 | 0.429 | 0.475 | 0.205 | 0.86 | 1.14 | 0.903 | 0.566 | 0.392 | 0.411 | 0.444 | 0.407 | 0.806 | 0.804 | 0.909 | 0.827 |
| NCI-H2126 | 0.468 | 0.453 | 0.593 | 0.466 | 0.482 | 0.443 | 0.499 | 0.468 | 1.04 | 1.14 | 1.07 | 0.981 | 0.939 | 1.01 | 1.03 | 0.974 | 0.819 | 1.08 | 0.931 | 0.772 |
| NCI-H1666 | 0.899 | 0.788 | 1.07 | 0.716 | 0.56 | 0.388 | 0.489 | 0.527 | 0.939 | 0.837 | 0.998 | 0.626 | 0.863 | 0.874 | 0.802 | 0.788 | 0.726 | 0.716 | 0.702 | 0.762 |
| NCI-H23 | 0.331 | 0.397 | 0.432 | 0.326 | 0.414 | 0.559 | 0.58 | 0.446 | 0.446 | 0.54 | 0.574 | 0.534 | 0.286 | 0.214 | 0.235 | 0.106 | 0.3 | 0.251 | 0.407 | 0.233 |
| NCI-H1944 | 0.419 | 0.385 | 0.432 | 0.328 | 0.372 | 0.292 | 0.332 | 0.34 | 1.24 | 1.24 | 1.18 | 0.953 | 0.527 | 0.433 | 0.585 | 0.579 | 0.356 | 0.378 | 0.401 | 0.334 |
| LCLC-97TM1 | 0.185 | 0.181 | 0.163 | 0.153 | 0.176 | – | 0.182 | 0.156 | 0.321 | – | 0.379 | 0.255 | 0.289 | 0.279 | 0.198 | 0.224 | 0.308 | 0.368 | 0.449 | 0.242 |
| HOP-62 | 0.358 | 0.378 | 0.375 | 0.276 | 0.626 | 0.741 | 0.968 | 0.428 | 0.936 | 1.09 | 1.15 | 0.952 | 0.476 | 0.499 | 0.797 | 0.458 | 0.325 | 0.401 | 0.0964 | 0.545 |
| LXF-289 | 0.661 | 0.69 | 0.666 | 0.592 | 0.724 | 0.891 | 0.825 | 0.559 | 0.782 | 0.913 | 0.825 | 0.532 | 0.813 | 1.15 | 1.18 | 0.978 | 0.903 | 1.18 | 1.25 | 0.955 |
| NCI-H1915 | 0.304 | 0.339 | 0.281 | 0.247 | 0.967 | 0.865 | 0.928 | 0.806 | 0.705 | 1.35 | 0.953 | 0.859 | 0.67 | 0.735 | 0.632 | 0.671 | 0.248 | 0.264 | 0.276 | 0.255 |
| NCI-H727 | 0.32 | – | 0.384 | 0.409 | 0.434 | 0.264 | 0.379 | 0.231 | 0.667 | 1 | 0.637 | 0.429 | 0.643 | – | 0.627 | 0.471 | 0.69 | – | 0.744 | 0.738 |
| NCI-H838 | 0.563 | 0.482 | 0.522 | 0.509 | 0.556 | 0.378 | 0.391 | 0.362 | 0.764 | 0.86 | 0.94 | 0.7 | 0.842 | 0.884 | 0.992 | 0.831 | 0.939 | 0.709 | 1.18 | 0.613 |
| NCI-H1437 | 0.444 | 0.471 | 0.454 | 0.377 | 0.416 | 0.379 | 0.394 | 0.301 | 0.851 | 1.27 | 0.894 | 0.47 | 1.16 | 1.29 | 1.24 | 0.654 | 0.626 | 0.683 | 0.564 | 0.456 |
| NCI-H1975 | 0.29 | 0.291 | 0.307 | 0.179 | 0.281 | 0.267 | 0.28 | 0.25 | 0.721 | 1.2 | 0.875 | 0.581 | 0.664 | 0.599 | 0.72 | 0.558 | 0.534 | 0.839 | 0.826 | 0.456 |
| NCI-H441 | – | 0.422 | 0.401 | 0.177 | 0.356 | 0.53 | 0.591 | 0.3 | 0.716 | 0.879 | 0.76 | 0.565 | – | 1.36 | 1.19 | 1.06 | – | 0.799 | 0.531 | 0.467 |
